Measurements from patent US20250367106A1, “Topical Formulation for Improving Skin Quality and Inducing the Release of Oxytocin” (OX Technology IP LLC, priority 2024, published 2025).

Experiment: ratings of trustworthiness and attractiveness of unfamiliar faces (FIG. 3)
Type: in vivo, human
Conditions: people under the influence of the hormone compared to control groups who were not
Text: As has been explained, the first set 14 of active ingredients create a reaction in the body that induces the production of hormones and/or pheromones. Hormones, such as oxytocin and its kind promote improved social behavior and enhances positive social perceptions of others. […] Oxytocin also masks negative personality perceptions that masculinized faces tend to elicit.

For `CC[C@H](C)[C@@H]1NC(=O)[C@H](Cc2ccc(O)cc2)NC(=O)[C@@H](N)CSSC[C@@H](C(=O)N2CCC[C@H]2C(=O)N[C@@H](CC(C)C)C(=O)NCC(N)=O)NC(=O)[C@H](CC(N)=O)NC(=O)[C@H](CCC(N)=O)NC1=O` [oxytocin], the “ratings of "trustworthiness" and "attractiveness" of unfamiliar faces” value was “higher ratings”.
